Target: T1, JAK3: Recombinant human kinase domain (810-1124) (Homo sapiens, UniProt P52333)
T1 construct: JAK3: Recombinant human kinase domain (810-1124); made in house
Experiment: Determination of IC50 of Janus Kinase (JAK) inhibition, JAK3, radioactive end-point assay with 33P-ATP
Assay type: biochemical
Conditions: no additive; 0.1 nM JAK3, ATP 1.5 uM, peptide 50 uM, 20 minutes; read-out: Ic50 h-jak3-sf21-c: no additive
Text: Determination of IC50 of Janus Kinase (JAK) Inhibition:
Enzymes and peptide substrate used are described below: • JAK1: Recombinant human kinase domain (866-1154) from Invitrogen (Cat # PV4774) • JAK3: Recombinant human kinase domain (810-1124) made in house by Roche Palo Alto • JAK2: Recombinant human kinase domain (808-1132) from Millipore (Cat # 14-640) • Substrate: N-terminally biotinylated 14-mer peptide derived from activation loop of JAK1 with sequence of the peptide substrate: Biotin-[sequence]
Assay conditions used are described below: • Assay Buffer: JAK Kinase Buffer: 50 mM Hepes [pH 7.2], 10 mM MgCl2, 1 mM DTT, 1 mg/ml BSA. The assay is carried out in this buffer. • Assay Format The kinase activity of all three JAK kinases is measured using a radioactive, end-point assay and with trace amounts of ^33P-ATP. The assays are carried out in 96-well polypropylene plates. Experimental Method:
All concentrations are final in the reaction mixture and all incubations are carried at room temperature. […] 1 wash with water. • 6) Washed plates are dried in a 60° C. oven for between 1 to 2 hours. • 7) 70 ul of Microscint 20 scintillation fluid is added to each well of filter plates and after at least 30 minutes of incubation, radioactive counts are measured in a Perkinelmer microplate scintillation counter.

T1 sequence (P52333 810-1124): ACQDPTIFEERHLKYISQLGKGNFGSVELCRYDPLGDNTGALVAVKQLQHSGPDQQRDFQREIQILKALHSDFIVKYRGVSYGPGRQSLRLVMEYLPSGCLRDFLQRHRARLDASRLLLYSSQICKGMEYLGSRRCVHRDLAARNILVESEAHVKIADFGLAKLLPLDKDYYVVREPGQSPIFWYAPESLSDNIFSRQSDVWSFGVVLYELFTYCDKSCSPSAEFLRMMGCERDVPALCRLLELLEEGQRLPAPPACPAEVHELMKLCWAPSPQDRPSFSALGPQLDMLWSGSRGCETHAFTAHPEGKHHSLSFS

IC50 | Compound
326 nM | O=C(NCC1CCCCC1)Nc1cnc2[nH]ccc2n1 [Compound I-6, 1-Cyclohexylmethyl-3-(5H-pyrrolo[2,3-b]pyrazin-2-yl)-urea]
144 nM | O=C(NCCc1ccccc1)Nc1cnc2[nH]ccc2n1 [Compound I-10, 1-Phenethyl-3-(5H-pyrrolo[2,3-b]pyrazin-2-yl)-urea]

From patent US8012974B2, “Pyrrolopyrazinyl urea kinase inhibitors” (Roche Palo Alto LLC, priority 2008, dated 2011)
